Values of other authors as cited in US20090209489A1, “Compositions for the treatment of diabetis, system PH disorders, high blood pressure, and a cancer marker system” (priority 2008, published 2009).

System: Group 5 viruses
Conditions: therapeutic doses

Q: Which “effectiveness at killing Group 5 viruses relative to any other known medication” value does the source give for CC(=O)N[C@H]1[C@H]([C@H](O)[C@H](O)CO)OC(O)(C(=O)O)C[C@@H]1O (stereo partly shown) [N-Acetyl-Neuraminic Acid] here?
A: more than 1000 times
